Measurements reported in patent US20210156844A1, “TMEM16A Modulation for Diagnostic or Therapeutic Use in Pulmonary Hypertension (PH)” (Bayer Aktiengesellschaft, priority 2017, published 2021).

Legend:
hypoxia-exposed mice = assay: Acute hemodynamic effects of benzbromarone in hypoxia-exposed mice; format: in vivo, mouse; conditions: single i.v. bolus of 300 μM
Source text: The experimental protocol is depicted in FIG. 12A. Male C57BL/6J mice (Charles River) at the age of 10 weeks were either placed into a hypoxic chamber (FiO2=0.1, n=16) for 4 weeks, or kept at normoxic conditions (control group, FiO2=0.21, n=8). According to the reports of Fagan et al. (Fagan, K A, et al. Am. J. Physiol. Lung Cell. Mol. Physiol. (2004) 287, L656-664) and Tuscherer et al. (Tuchscherer, H A, et al., J. Biomech. (2007) 40, 993-1001), a significant increase in the right ventricular systolic pressure (RVSP) and PA muscularization can be observed already after 14 days of hypoxia exposure. Therefore, mice subjected to hypoxia were randomized into two groups at the end of the second week. […]
In mice, in vivo hemodynamics was performed under constant inhalation of 2% isoflurane/oxygen, using the closed chest technique through a small incision on the submandibular area. Body temperature was monitored and maintained at 37±1° C. A limb-lead ECG was recorded and the heart rate was kept constant to avoid changes in the sympathetic tone during the experiment. The right ventricle (RV) was catheterized via the right jugular vein using a 1.4 F Millar catheter (SPR-671, Millar, Houston Tex., USA) and right ventricular systolic pressure (RVSP) was measured continuously. […]

[1] = tested on: monocrotaline (MCT)-treated rats; assay: Acute hemodynamic effects of benzbromarone in monocrotaline (MCT)-treated rats; format: in vivo, rat; conditions: single i.v. bolus of 300 μM
Procedure: Male Sprague-Dawley rats (body weight: approx. 250 g, Charles River) received a single subcutaneous injection of monocrotaline (MCT, 60 mg/kg, n=16) or vehicle (control group, n=8). Since significant RVSP increase and PA muscularization had been detected as early as 12 days after the injection of MCT58, two weeks after monocrotaline treatment rats were randomly ordered into two groups. Subcutaneous slow-release pellets (Innovative Research of America) that contained either benzbromarone (MCT+BBR, n=8) or vehicle (MCT+Veh, n=8) were implanted. Four weeks after monocrotaline treatment all rats were subjected to echocardiography and in vivo hemodynamic measurements, thereafter they were sacrificed for organ collection. In rats, in vivo hemodynamic measurements were conducted as described above for the mice, with the exception that for the right ventricular and the systolic blood pressures, 2 F Millar Catheters (SPR-513 and SPR-320, respectively) were used. The above described control and MCT+Veh groups were included in this study. Benzbromarone was injected into the left jugular vein as a single bolus ([…], i.v. in 100 μl saline) and pressures were monitored until a maximum effect was observed (approx. 10 minutes).

[2] = tested on: patients with severe IPAH; assay: Hemodynamic effect of a single oral dose of benzbromarone in IPAH patients; format: in vivo, human; conditions: 200 mg orally
Procedure: All patients provided a written informed consent to participate in the study. Examinations were performed by the same experienced team. For the right heart catheterizations, a 7F quadriple-lumen, balloon-tipped, flow-directed Swan-Ganz catheter (Baxter, Deerfield, Ill.) was introduced using the transjugular approach. Hemodynamic measurements included systolic, diastolic and mean pulmonary arterial pressure, pulmonary arterial wedge pressure, right atrial pressure, and cardiac output measured by the thermodilution technique and calculated using an analog computer system. Pulmonary vascular resistance was derived from the difference of mean pulmonary arterial pressure and pulmonary arterial wedge pressure divided by cardiac output. Cardiac index was determined as the ratio of cardiac output to body surface area. All measurements were performed in the supine position, pressure values were continuously recorded and averaged over several respiratory cycles during spontaneous breathing. […] Partial pressure of oxygen and oxygen saturation of arterialized ear lobe capillary blood and pulmonary arterial blood were determined with an ABL 800 Flex (Radiometer; Copenhagen, Denmark) blood gas analyzer. Systemic blood pressure was measured by a sphygmomanometer.

[3] = after 120 min, 10 patients, no placebo group

Which results are given for `CCc1oc2ccccc2c1C(=O)c1cc(Br)c(O)c(Br)c1` [benzbromarone, (2-Ethyl-3-benzofuranyl)-(3,5-dibrom-4-hydroxyphenyl)ketone]?
RVSP (hypoxia-exposed mice; mice exposed to 4 weeks of hypoxia): significant decrease; RVSP in the control animals (hypoxia-exposed mice; normoxia control mice): without affecting; RVSP ([1]; MCT-treated rats): significant decrease; RVSP in the control animals ([1]; vehicle-treated control rats): without affecting; further changes in the pulmonary or systemic hemodynamics [2]: no further changes; PVR [2, 3]: slight increase; mPAP [2, 3]: slight increase; clinical adverse effects ([2]; throughout the study): No clinical adverse effects
